For series [1], the target named is T1, Histone deacetylase 1 (Homo sapiens, UniProt Q13547).
In series [2] the target is T1, Histone deacetylase 1. The source holds these as a separate data set.
For series [3], the target named is T1, Histone deacetylase 1. Nature of the series: Inhibition of HDAC1 in human COLO205 cells assessed as induction of histone H3 acetylation at 10 uM by Western-immuno blotting. Type of series: cell-based. The note with it: COLO 205.
A short description of series [4]: Solubility at pH 7. In kind it is physicochemical. Conditions: buffer.
In series [5] the test system is HCT-116. As to the kind of experiment: Antiproliferative activity against human HCT116 cells. Type of series: functional, cell-based.
For a further series, the system named is A2780. As to the kind of experiment: Antiproliferative activity against human A2780 cells. Type of series: functional, cell-based.
The next series relates to PC-3. Nature of the series: Antiproliferative activity against human PC3 cells. Type of series: functional, cell-based.
The nature of series [6]: Half life in human liver microsome. Type of series: ADME. The note with it: liver microsomes. On the technique in general: Liver microsomes are a subcellular fraction often used to study metabolism.
The target of the next series is T2, Histone deacetylase 8 (Homo sapiens, UniProt Q9BY41).
T2 sequence (Q9BY41 whole entry): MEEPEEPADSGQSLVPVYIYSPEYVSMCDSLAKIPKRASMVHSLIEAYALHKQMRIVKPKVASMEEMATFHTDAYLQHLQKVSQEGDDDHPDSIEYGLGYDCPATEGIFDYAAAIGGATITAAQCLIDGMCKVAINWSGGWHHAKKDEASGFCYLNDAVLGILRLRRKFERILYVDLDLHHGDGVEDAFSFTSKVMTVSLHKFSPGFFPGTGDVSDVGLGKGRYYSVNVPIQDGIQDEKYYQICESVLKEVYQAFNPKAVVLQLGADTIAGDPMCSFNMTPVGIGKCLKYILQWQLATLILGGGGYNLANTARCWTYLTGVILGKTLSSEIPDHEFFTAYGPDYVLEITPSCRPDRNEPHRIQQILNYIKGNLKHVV
As to the kind of experiment: Inhibition of HDAC8.

The nature of series [7]: Thermodynamic solubility at pH 7.4. Type of series: physicochemical. Conditions: buffer, read-out: Therm_solubility.
Series [8] in a line: Half life in rat liver microsome. Conditions: liver microsomes. Type of series: ADME.
The nature of series [9]: Half life in mouse liver microsome. Type of series: ADME. The note with it: liver microsomes.
Series [10] can be described thus: Octanol-water distribution coefficient, log D of the compound. In kind it is physicochemical.
Series [11] can be described thus: Apparent permeability from apical to basolateral side of Caco-2 cells. Type of series: ADME, cell-based. Conditions: human. (Caco-2 monolayers are a common model of the intestinal barrier.)
A short description of series [12]: Clearance in mouse at 10 mg/kg, iv. Type of series: ADME, organism-based. More on the design: dose 10 mg/kg, route intravenous. Conditions: in vivo.
The nature of series [13]: Volume of distribution at steady state in mouse at 10 mg/kg, iv. Conditions: in vivo, read-out: Vdss. Also noted: dose 10 mg/kg, route intravenous. Type of series: ADME, organism-based.
The nature of series [14]: Elimination half life in mouse at 10 mg/kg, iv. Conditions: in vivo, read-out: beta t1/2 (converted). Type of series: ADME, organism-based. More on the design: dose 10 mg/kg, route intravenous.
Series [15] can be described thus: Toxicity in human PC3 cells xenografted nude mouse. The note with it: in vivo. Type of series: organism-based, PC-3. (A xenograft is tissue or cells of one species grown in another, often human tumour cells in immunodeficient mice.)
In series [16] the test system is HCT-116. Nature of the series: Antitumor activity against human HCT116 cells xenografted in BALB/c mouse at 200 mg/kg, po after 21 days. In kind it is functional, organism-based. More on the design: dose 200 mg/kg.
Series [17] in a line: Oral bioavailability in mouse at 50 mg/kg, po. Conditions: in vivo.

The structures appear in SMILES notation. In brackets after ≈: the same amount, converted by molar mass. Activity calls are given as the source filed them. The calls are words filed in the database; no cut-off is given here.

A word on the IC50: it is the midpoint of a concentration-inhibition curve. Lower therefore signals inhibition by little substance. For orientation: solubility means the concentration that dissolves in the medium under given conditions. A low value points to little dissolved substance. As usually defined, the logD is the decadic logarithm of the distribution of all forms, ionised or not, between an organic phase and buffer at a given pH. Read a low logD as a more hydrophilic compound. A word on the Papp A→B: it is the apparent permeability from the apical to the basolateral side of a cell layer. What is called clearance is a measure of how efficiently the substance is removed, as volume per time. Higher therefore signals a high capacity for elimination. The term bioavailability denotes the share of a dose that reaches the circulation, judged against a reference dose that is usually intravenous.

T1 sequence (Q13547 whole entry): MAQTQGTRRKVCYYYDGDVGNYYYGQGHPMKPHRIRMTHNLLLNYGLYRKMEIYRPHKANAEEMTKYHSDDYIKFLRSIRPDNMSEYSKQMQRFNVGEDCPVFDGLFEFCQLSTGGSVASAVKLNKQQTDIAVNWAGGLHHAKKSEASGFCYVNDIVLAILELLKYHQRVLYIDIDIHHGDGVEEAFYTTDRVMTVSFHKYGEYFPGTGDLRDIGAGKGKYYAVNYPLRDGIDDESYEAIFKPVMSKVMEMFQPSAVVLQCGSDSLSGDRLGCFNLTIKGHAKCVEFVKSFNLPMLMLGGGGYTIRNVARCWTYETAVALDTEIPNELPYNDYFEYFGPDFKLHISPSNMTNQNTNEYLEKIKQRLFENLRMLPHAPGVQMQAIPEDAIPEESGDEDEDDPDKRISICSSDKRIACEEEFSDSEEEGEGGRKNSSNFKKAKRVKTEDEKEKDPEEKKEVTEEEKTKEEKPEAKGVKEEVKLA

Consider `O=C(CCCCCNC(=O)NC(=O)c1ccc2c(c1)ncn2CCCc1ccccc1)NO`, for which the figures for the IC50 at Histone deacetylase 1 [1] and at Histone deacetylase 1 [2] were 20 nM and 3750 nM, respectively.

On to `O=C(CCCCCNC(=O)NC(=O)c1ccc([N+](=O)[O-])cc1)NO`, for which the outcome at Histone deacetylase 1 [3] was Active. Further, the IC50 against Histone deacetylase 1 [1] stood at 45 nM; against Histone deacetylase 1 [2], 2310 nM.

With `CCN(CC)CCn1cnc2cc(C(=O)NC(=O)NCCCCCC(=O)NO)ccc21`, the concentration for half-maximal inhibition (IC50) against Histone deacetylase 1 [1] came to 21 nM; against Histone deacetylase 1 [2], 5100 nM.

In the case of `O=C(CCCCCNC(=O)NC(=O)c1ccc2ccccc2c1)NO`, the half-maximal inhibitory concentration (IC50) on Histone deacetylase 1 [1] turned out to be 6 nM; at Histone deacetylase 1 [2], 2150 nM.

`O=C(CCCCCNC(=O)NC(=O)c1ccc(NC(=O)Cc2ccccc2)cc1)NO`: in series [4], the solubility was determined as 28 µM (≈ 11.9 µg/mL). Moreover, the outcome on Histone deacetylase 1 [3] was Active. The IC50 against Histone deacetylase 1 [1] was found to be 44 nM; against Histone deacetylase 1 [2], 13200 nM.

On to `Nc1cc(C(=O)NC(=O)NCCCCCC(=O)NO)ccc1Cl`, for which the IC50 came to 11 nM against Histone deacetylase 1 [1] and 1250 nM on Histone deacetylase 1 [2].

`O=C(CCCCCNC(=O)NC(=O)c1ccc(N2CCCCC2)c([N+](=O)[O-])c1)NO`: the values for the IC50 against Histone deacetylase 1 [1] and against Histone deacetylase 1 [2] were 46 nM and 3250 nM, respectively.

On to `O=C(CCCCCNC(=O)NC(=O)c1ccc2c(c1)ncn2CCc1ccccc1)NO`, for which the IC50 amounted to 25 nM against Histone deacetylase 1 [1] and 9700 nM at Histone deacetylase 1 [2].

Regarding `O=C(CCCCCNC(=O)NC(=O)c1ccc(NCCN2CCCC2)c([N+](=O)[O-])c1)NO`, the IC50 in the series on HCT-116 [5] was determined as 1330 nM; in the series with A2780, 990 nM; in the series with PC-3, 920 nM; at Histone deacetylase 1 [1], 22 nM; against Histone deacetylase 1 [2], 2420 nM. Besides, the solubility in series [4] is greater than 205 µM. The half-life in [6] is greater than 30 min. Moreover, the result on Histone deacetylase 1 [3] was Active.

Consider `O=C(CCCCCCN(Cc1ccccc1)C(=O)NC(=O)c1ccccc1)NO`, for which, at Histone deacetylase 1 [1], the IC50 was 1600 nM.

Consider `O=C(CCCCCNC(=O)NC(=O)c1ccc(I)cc1)NO`, for which the IC50 on Histone deacetylase 1 [1] came out at 8 nM; at Histone deacetylase 1 [2], 870 nM.

On to `O=C(CCCNC(=O)NC(=O)c1ccccc1)NO`, for which the IC50 at Histone deacetylase 8 and on Histone deacetylase 1 [1] was greater than 10000 nM each time.

As for `O=C(CCCCCNC(=O)NC(=O)c1ccc(N2CCOCC2)c([N+](=O)[O-])c1)NO`, the results for the IC50 against Histone deacetylase 1 [1] and against Histone deacetylase 1 [2] were 55 nM and 12000 nM, respectively.

For the compound `O=C(CCCCCCCNC(=O)NC(=O)c1ccccc1)NO`, the IC50 on Histone deacetylase 8 was 405 nM; at Histone deacetylase 1 [2] it was 8280 nM.

On to `CN(C)CC(C)(C)Cn1cnc2cc(C(=O)NC(=O)NCCCCCC(=O)NO)ccc21`, for which the IC50 against Histone deacetylase 1 [1] is 20 nM; against Histone deacetylase 1 [2], 3700 nM.

For the compound `O=C(CCCCCCNC(=O)NC(=O)c1ccccc1)NO`, the result on Histone deacetylase 1 [3] was Active. Besides, the IC50 at Histone deacetylase 1 [1] came out at 145 nM; on Histone deacetylase 1 [2], 2680 nM.

With `CCCCc1nc2cc(C(=O)NC(=O)NCCCCCC(=O)NO)ccc2n1CCN1CCCC1`, the IC50 in the series with HCT-116 [5] turned out to be 3520 nM; in the series with A2780, 1350 nM; in the series with PC-3, 1250 nM; at Histone deacetylase 1 [1], 22 nM; on Histone deacetylase 1 [2], 2910 nM. For the same compound, in series [4], the solubility is greater than 211 µM. In addition, the half-life in [6] was greater than 30 min. Also, the outcome at Histone deacetylase 1 [3] was Active.

On to `O=C(CCCCCNC(=O)NC(=O)c1ccc(NS(=O)(=O)c2ccccc2)cc1)NO`, for which the IC50 against Histone deacetylase 1 [1] was 97 nM; at Histone deacetylase 1 [2], greater than 100000 nM.

As to `O=C(CCCCCCC(=O)Nc1ccccc1)NO` [VORINOSTAT], the solubility in series [4] was greater than 250 µM. In addition, the solubility thermodynamic in series [7] came out at 166 µg/mL (≈ 628 µM). Moreover, the half-life in series [6] was greater than 60 min; in series [8], greater than 30 min; in [9], greater than 30 min; in series [14], 22.8 min. The logD in [10] came to 1.04. The Papp A→B in series [11] turned out to be 1.7 ×10⁻⁶ cm/s. In series [12], this compound gave a clearance of 112 mL/min/kg. Moreover, the Vd in series [13] came out at 0.81 L/kg. The compound also had an MTD in series [15] of 160 mg/kg. Besides, in the series with HCT-116 [16], the outcome was Active. Further, the bioavailability in series [17] was found to be 8.3%.

As for `O=C(CCCCCNC(=O)NC(=O)c1cccc([N+](=O)[O-])c1)NO`, the values for the IC50 at Histone deacetylase 1 [1] and on Histone deacetylase 1 [2] were 92 nM and 2800 nM, respectively.

Consider `O=C(CCCCCNC(=O)NC(=O)c1ccc2c(c1)nc(CCc1ccccc1)n2CCN1CCCC1)NO`, for which the solubility in series [4] was greater than 250 µM. Also, the half-life in series [6] came out at 21 min. The result at Histone deacetylase 1 [3] was Active. Also, the results for the half-maximal inhibitory concentration (IC50) against Histone deacetylase 1 [1] and at Histone deacetylase 1 [2] were 34 nM and 5380 nM, respectively.

Turning to `O=C(CCCCCNC(=O)NC(=O)c1ccc(Cl)cc1)NO`, the figures for the IC50 against Histone deacetylase 1 [1] and against Histone deacetylase 1 [2] were 26 nM and 1600 nM, respectively.

In the case of `O=C(CCCCCCN(Cc1ccccn1)C(=O)NC(=O)c1ccccc1)NO`, the 50% inhibitory concentration (IC50) against Histone deacetylase 1 [1] came to 555 nM; on Histone deacetylase 1 [2], 9060 nM.

Take `O=C(CCCCCNC(=O)NC(=O)c1c(Cl)cccc1Cl)NO`: the values for the IC50 on Histone deacetylase 1 [1] and against Histone deacetylase 1 [2] were 185 nM and 2950 nM, respectively.

With `CC(C)(C)c1ccc(C(=O)NC(=O)NCCCCCC(=O)NO)cc1`, the IC50 against Histone deacetylase 1 [1] is 24 nM; at Histone deacetylase 1 [2], 2350 nM.

Turning to `O=C(CCCCCNC(=O)NC(=O)c1ccc(F)cc1)NO`, the results for the IC50 on Histone deacetylase 1 [1] and against Histone deacetylase 1 [2] were 115 nM and 2550 nM, respectively.

In the case of `CN(C)CCn1cnc2cc(C(=O)NC(=O)NCCCCCC(=O)NO)ccc21`, the IC50 against Histone deacetylase 1 [1] was 49 nM; against Histone deacetylase 1 [2], 19500 nM.

For the compound `O=C(CCCCCN(Cc1ccccc1)C(=O)NC(=O)c1ccccc1)NO`, the result on Histone deacetylase 1 [3] was Active. Moreover, the results for the IC50 at Histone deacetylase 1 [1] and against Histone deacetylase 1 [2] were 355 nM and 3190 nM, respectively.

With `O=C(CCCCCN(Cc1ccccn1)C(=O)NC(=O)c1ccccc1)NO`, the IC50 amounted to 245 nM against Histone deacetylase 1 [1] and 14700 nM at Histone deacetylase 1 [2].

Take `CN1CCN(c2ccc(C(=O)NC(=O)NCCCCCC(=O)NO)cc2[N+](=O)[O-])CC1`: the IC50 was 43 nM against Histone deacetylase 1 [1] and 11500 nM against Histone deacetylase 1 [2].

In the case of `CCN(CC)CCNc1ccc(C(=O)NC(=O)NCCCCCC(=O)NO)cc1[N+](=O)[O-]`, the IC50 amounted to 20 nM against Histone deacetylase 1 [1] and 1700 nM against Histone deacetylase 1 [2].

`O=C(CCCCCNC(=O)NC(=O)c1ccc(N2CCCC2)c([N+](=O)[O-])c1)NO`: the figures for the half-inhibitory concentration (IC50) against Histone deacetylase 1 [1] and at Histone deacetylase 1 [2] were 20 nM and 3450 nM, respectively.

`O=C(CCCCCNC(=O)NC(=O)c1cccc(Br)c1)NO`: the IC50 on Histone deacetylase 1 [1] was determined as 60 nM; at Histone deacetylase 1 [2] it was 3150 nM.

`O=C(CCCCCN(CCCc1ccccc1)C(=O)NC(=O)c1ccccc1)NO`: the IC50 on Histone deacetylase 8 turned out to be 328 nM; at Histone deacetylase 1 [1], 392 nM.

Turning to `O=C(CCCCCNC(=O)NC(=O)c1ccc(-c2cncnc2)cc1)NO`, the solubility in [4] is 17 µM (≈ 6.31 µg/mL). In series [6], the half-life was greater than 30 min. Besides, at Histone deacetylase 1 [3], the outcome was Active. The half-inhibitory concentration (IC50) on Histone deacetylase 1 [1] was 26 nM; against Histone deacetylase 1 [2], 10000 nM.
